ChEMBL document CHEMBL5154872 (Eur J Med Chem, 2022)
≈ marks a conversion by molar mass, not a printed value. Values belong to the molecule of their own block, whether it stands above or below them.

Experiments:
[1] = target: T1, Programmed cell death 1 ligand 1 (Homo sapiens, UniProt Q9NZQ7); test: Binding affinity towards His-tagged recombinant human PD-L1 measured by MicroScale Thermophoresis (MST) assay
[2] = 1-Octanol/phosphate buffered-saline distribution coefficient, logD of compound at pH 7.4 measured after 2 hrs by LC-MS analysis; type: physicochemical
[3] = Solubility in PBS at pH 7.4; type: physicochemical
[4] = target: T1, Programmed cell death 1 ligand 1; test: Binding affinity towards His-tagged recombinant human PD-L1 measured by MST dimerization binding assay; type: single protein
[5] = Stability in CD-1 mouse plasma assessed as half-ife at 10 uM; type: ADME, cell-free
[6] = Reactivation of mouse CTLL-2 cells pretreated with human PD-L1 assessed as increase in cell proliferation and measured by flow cytometry assay; type: functional, cell-based
[7] = target: Programmed cell death protein 1/Programmed cell death 1 ligand 1 (Homo sapiens, UniProt Q9NZQ7); test: Inhibition of human PD-1/PD-L1 interaction in CHO-K1 cells transfected with PD-1-YFP/SHP-2-CFP and measured by FRET assay; type: cell-based
Sequence of Programmed cell death protein 1/Programmed cell death 1 ligand 1 (Q15116 whole entry): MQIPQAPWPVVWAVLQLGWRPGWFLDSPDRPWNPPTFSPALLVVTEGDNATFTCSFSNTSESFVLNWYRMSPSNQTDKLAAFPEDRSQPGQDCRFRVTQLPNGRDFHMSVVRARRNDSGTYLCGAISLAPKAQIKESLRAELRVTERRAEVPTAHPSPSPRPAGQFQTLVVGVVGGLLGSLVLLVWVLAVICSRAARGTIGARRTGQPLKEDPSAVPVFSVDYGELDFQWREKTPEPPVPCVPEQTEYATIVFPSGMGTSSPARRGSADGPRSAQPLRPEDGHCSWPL
Sequence of Programmed cell death protein 1/Programmed cell death 1 ligand 1 (Q9NZQ7 whole entry): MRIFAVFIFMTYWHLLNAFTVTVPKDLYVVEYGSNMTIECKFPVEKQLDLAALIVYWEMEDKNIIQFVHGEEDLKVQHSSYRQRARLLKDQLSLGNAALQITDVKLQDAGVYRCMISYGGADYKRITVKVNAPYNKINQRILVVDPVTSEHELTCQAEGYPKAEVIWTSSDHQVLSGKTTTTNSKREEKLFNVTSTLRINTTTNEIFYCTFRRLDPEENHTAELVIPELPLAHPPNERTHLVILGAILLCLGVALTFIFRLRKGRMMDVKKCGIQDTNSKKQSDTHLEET

T1 sequence (Q9NZQ7 whole entry): as above

Compound: CC(C)(C)C1=NN(c2ccccn2)C(=O)C1
Kd [1]: > 500 µM

Compound: O=C1CC(c2ccc(Cl)c(Cl)c2)=NN1c1ccccn1
Kd [1]: 0.584 µM

Compound: CCC1=NN(c2ccccn2)C(=O)C1
Kd [1]: > 500 µM

logD at 2 h [2]: 0.85
solubility [3]: > 200 µM
half-life at 10 µM [5]: 16 min
Compound: CC1=NN(c2ccccn2)C(=O)C1
Kd [4]: 0.053 µM
IC50 [6]: 0.102 µM

logD at 2 h [2]: 2.56
solubility [3]: 80.9 µM (≈ 21.6 µg/mL)
half-life at 10 µM [5]: 10.9 min
Compound: COc1ccccc1C1=NN(c2ccccn2)C(=O)C1
Kd [4]: 0.046 µM
IC50 [6]: 0.014 µM

Compound: O=C1CC(c2ccc(C(F)(F)F)cc2)=NN1c1ccccn1
IC50 [7]: 0.143 µM
Kd [1]: 0.156 µM

Compound: Cc1ccccc1C1=NN(c2ccccn2)C(=O)C1
Kd [1]: > 500 µM

Compound: CCCCC1=NN(c2ccccn2)C(=O)C1
Kd [1]: > 500 µM

Compound: O=C1CC(c2ccccc2Cl)=NN1c1ccccn1
Kd [1]: > 500 µM

Compound: Cc1cccc(C2=NN(c3ccccn3)C(=O)C2)c1
Kd [1]: > 500 µM

Compound: CC(C)C1=NN(c2ccccn2)C(=O)C1
Kd [1]: > 500 µM

Compound: O=C1CC(c2cccc(Cl)c2)=NN1c1ccccn1
Kd [1]: > 500 µM

logD at 2 h [2]: 2.19
solubility [3]: 183 µM (≈ 54.4 µg/mL)
half-life at 10 µM [5]: 30 min
Compound: COc1ccc(C2=NN(c3ccccn3)C(=O)C2)cc1OC
IC50 [7]: 0.0073 µM
Kd [1]: 0.00119 µM
Kd [4]: 0.0007 µM
IC50 [6]: 0.0041 µM

logD at 2 h [2]: 2.82
solubility [3]: 199 µM (≈ 53.2 µg/mL)
half-life at 10 µM [5]: 12 min
Compound: COc1ccc(C2=NN(c3ccccn3)C(=O)C2)cc1
Kd [4]: 0.002 µM
IC50 [6]: 0.075 µM

Compound: O=C1CC(c2ccccn2)=NN1c1ccccn1
Kd [1]: > 500 µM

Compound: Cc1ccc(C2=NN(c3ccccn3)C(=O)C2)cc1
Kd [1]: 1.09 µM

Compound: O=C1CC(C23CC4CC(CC(C4)C2)C3)=NN1c1ccc(Cl)cc1Cl
logD at 2 h [2]: 4.28
solubility [3]: 1.9 µM (≈ 0.69 µg/mL)
IC50 [7]: 0.009 µM
Kd [4]: 0.024 µM
half-life at 10 µM [5]: 31 min
IC50 [6]: 0.054 µM

Compound: O=C1CC(c2ccccc2F)=NN1c1ccccn1
Kd [1]: > 500 µM

Compound: CCCC1=NN(c2ccccn2)C(=O)C1
Kd [1]: > 500 µM
